Experimental data: PubChem BioAssay (NCI)
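All cell lines were grown in 96-well plates and treated with compound for 48 hours. The concentration for 50% growth inhibition is given as GI50. TGI is the concentration that stops growth completely.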

Tests used:
Assay in all cases: NCI anticancer screen, dose series, 48 h
786-0 renal = system: 786-0 renal
A498 renal = system: A498 renal
A549 NSCLC = system: A549 NSCLC
ACHN renal = system: ACHN renal
BT-549 breast = system: BT-549 breast
CAKI-1 renal = system: CAKI-1 renal
CCRF-CEM leukemia = system: CCRF-CEM leukemia
COLO 205 colon = system: COLO 205 colon
DU-145 prostate = system: DU-145 prostate
EKVX NSCLC = system: EKVX NSCLC
HCC-2998 colon = system: HCC-2998 colon
HCT-116 colon = system: HCT-116 colon
HCT-15 colon = system: HCT-15 colon
HL-60(TB) leukemia = system: HL-60(TB) leukemia
HOP-62 NSCLC = system: HOP-62 NSCLC
HOP-92 NSCLC = system: HOP-92 NSCLC
HS 578T breast = system: HS 578T breast
HT29 colon = system: HT29 colon
IGROV1 ovarian = system: IGROV1 ovarian
K-562 leukemia = system: K-562 leukemia
KM12 colon = system: KM12 colon
LOX IMVI melanoma = system: LOX IMVI melanoma
M14 melanoma = system: M14 melanoma
MALME-3M melanoma = system: MALME-3M melanoma
MCF7 breast = system: MCF7 breast
MDA-MB-231 breast = system: MDA-MB-231 breast
MDA-MB-435 = system: MDA-MB-435
MOLT-4 leukemia = system: MOLT-4 leukemia
NCI-H226 lung = system: NCI-H226 lung
NCI-H23 lung = system: NCI-H23 lung
NCI-H460 lung = system: NCI-H460 lung
NCI-H522 lung = system: NCI-H522 lung
NCI/ADR-RES ovarian = system: NCI/ADR-RES ovarian
OVCAR-3 ovarian = system: OVCAR-3 ovarian
OVCAR-4 ovarian = system: OVCAR-4 ovarian
OVCAR-5 ovarian = system: OVCAR-5 ovarian
OVCAR-8 ovarian = system: OVCAR-8 ovarian
PC-3 prostate = system: PC-3 prostate
RPMI-8226 leukemia = system: RPMI-8226 leukemia
RXF 393 renal = system: RXF 393 renal
SF-268 CNS = system: SF-268 CNS
SF-295 CNS = system: SF-295 CNS
SF-539 CNS = system: SF-539 CNS
SK-MEL-2 melanoma = system: SK-MEL-2 melanoma
SK-MEL-28 melanoma = system: SK-MEL-28 melanoma
SK-MEL-5 melanoma = system: SK-MEL-5 melanoma
SK-OV-3 ovarian = system: SK-OV-3 ovarian
SN12C renal = system: SN12C renal
SNB-19 CNS = system: SNB-19 CNS
SNB-75 CNS = system: SNB-75 CNS
SR leukemia = system: SR leukemia
SW-620 colon = system: SW-620 colon
T-47D breast = system: T-47D breast
TK-10 renal = system: TK-10 renal
U251 CNS = system: U251 CNS
UACC-257 melanoma = system: UACC-257 melanoma
UACC-62 melanoma = system: UACC-62 melanoma
UO-31 renal = system: UO-31 renal

## Cc1c(C(=O)CCl)c(=O)n(-c2ccccc2)n1C
786-0 renal
  GI50: 10.7 µM
  TGI: 24.3 µM
A498 renal
  GI50: 1.24 µM
  TGI: 11 µM
A549 NSCLC
  GI50: 11.6 µM
  TGI: 27.4 µM
ACHN renal
  GI50: 4.54 µM
  TGI: 16.6 µM
BT-549 breast
  GI50: 2.46 µM
  TGI: 12.8 µM
CAKI-1 renal
  GI50: 3.2 µM
  TGI: 12 µM
CCRF-CEM leukemia
  GI50: 1.01 µM
  TGI: 4.82 µM
COLO 205 colon
  GI50: 3.28 µM
  TGI: 11.2 µM
DU-145 prostate
  GI50: 2.22 µM
  TGI: 5.36 µM
EKVX NSCLC
  GI50: 12.4 µM
  TGI: 29.1 µM
HCC-2998 colon
  GI50: 12.9 µM
  TGI: 26.6 µM
HCT-116 colon
  GI50: 2.86 µM
  TGI: 10.4 µM
HCT-15 colon
  GI50: 3.59 µM
  TGI: 15.5 µM
HL-60(TB) leukemia
  GI50: 3.8 µM
  TGI: 13.5 µM
HOP-62 NSCLC
  GI50: 11.5 µM
  TGI: 27.3 µM
HOP-92 NSCLC
  GI50: 1.56 µM
  TGI: 13.2 µM
HS 578T breast
  GI50: 0.922 µM
  TGI: 5.52 µM
HT29 colon
  GI50: 3.25 µM
  TGI: 12.9 µM
IGROV1 ovarian
  GI50: 2.19 µM
  TGI: 6.92 µM
K-562 leukemia
  GI50: 2.76 µM
  TGI: 17.3 µM
KM12 colon
  GI50: 10.4 µM
  TGI: 22.6 µM
LOX IMVI melanoma
  GI50: 3.27 µM
  TGI: 14.3 µM
M14 melanoma
  GI50: 3.13 µM
  TGI: 15.4 µM
MALME-3M melanoma
  GI50: 1.31 µM
  TGI: 6.98 µM
MCF7 breast
  GI50: 2.73 µM
  TGI: 11.6 µM
MDA-MB-231 breast
  GI50: 11.2 µM
  TGI: 27.9 µM
MDA-MB-435
  GI50: 2.57 µM
  TGI: 11.5 µM
MOLT-4 leukemia
  GI50: 2.48 µM
  TGI: 11.5 µM
NCI-H226 lung
  GI50: 13.3 µM
  TGI: 33.2 µM
NCI-H23 lung
  GI50: 5.17 µM
  TGI: 21.1 µM
NCI-H460 lung
  GI50: 7.94 µM
  TGI: 32.1 µM
NCI-H522 lung
  GI50: 1.46 µM
  TGI: 3.23 µM
NCI/ADR-RES ovarian
  GI50: 5.53 µM
  TGI: 27.3 µM
OVCAR-3 ovarian
  GI50: 1.98 µM
  TGI: 4.94 µM
OVCAR-4 ovarian
  GI50: 3.68 µM
  TGI: 14.9 µM
OVCAR-5 ovarian
  GI50: 13.3 µM
  TGI: 27.1 µM
OVCAR-8 ovarian
  GI50: 3.85 µM
  TGI: 28.3 µM
PC-3 prostate
  GI50: 11.4 µM
  TGI: 37.5 µM
RPMI-8226 leukemia
  GI50: 1.07 µM
  TGI: 4.62 µM
RXF 393 renal
  GI50: 1.76 µM
  TGI: 6.11 µM
SF-268 CNS
  GI50: 5.47 µM
  TGI: 19.7 µM
SF-295 CNS
  GI50: 10.9 µM
  TGI: 44.3 µM
SF-539 CNS
  GI50: 7.19 µM
  TGI: 22.9 µM
SK-MEL-2 melanoma
  GI50: 3.99 µM
  TGI: 14.5 µM
SK-MEL-28 melanoma
  GI50: 3.27 µM
  TGI: 11.6 µM
SK-MEL-5 melanoma
  GI50: 3.66 µM
  TGI: 14.5 µM
SK-OV-3 ovarian
  GI50: 16.4 µM
  TGI: 74.5 µM
SN12C renal
  GI50: 5.93 µM
  TGI: 28.6 µM
SNB-19 CNS
  GI50: 17.1 µM
  TGI: 51.1 µM
SNB-75 CNS
  GI50: 10.9 µM
  TGI: 29.5 µM
SR leukemia
  GI50: 2.28 µM
  TGI: 13.5 µM
SW-620 colon
  GI50: 2.7 µM
  TGI: 8.54 µM
T-47D breast
  GI50: 2.43 µM
  TGI: 17.6 µM
TK-10 renal
  GI50: 3.81 µM
  TGI: 15.2 µM
U251 CNS
  GI50: 11.4 µM
  TGI: 26.2 µM
UACC-257 melanoma
  GI50: 2.58 µM
  TGI: 16.3 µM
UACC-62 melanoma
  GI50: 4.78 µM
  TGI: 18.9 µM
UO-31 renal
  GI50: 3.24 µM
  TGI: 18.5 µM
